The source of these data is patent US10035777B2, “Heterocyclic kinase inhibitors” (priority 2014, dated 2018).

One test deals with GST-Xa-hAAK1 (Homo sapiens (Human), UniProt Q2M2I8). In words: biochemical.
GST-Xa-hAAK1, sequence (Q2M2I8 whole entry): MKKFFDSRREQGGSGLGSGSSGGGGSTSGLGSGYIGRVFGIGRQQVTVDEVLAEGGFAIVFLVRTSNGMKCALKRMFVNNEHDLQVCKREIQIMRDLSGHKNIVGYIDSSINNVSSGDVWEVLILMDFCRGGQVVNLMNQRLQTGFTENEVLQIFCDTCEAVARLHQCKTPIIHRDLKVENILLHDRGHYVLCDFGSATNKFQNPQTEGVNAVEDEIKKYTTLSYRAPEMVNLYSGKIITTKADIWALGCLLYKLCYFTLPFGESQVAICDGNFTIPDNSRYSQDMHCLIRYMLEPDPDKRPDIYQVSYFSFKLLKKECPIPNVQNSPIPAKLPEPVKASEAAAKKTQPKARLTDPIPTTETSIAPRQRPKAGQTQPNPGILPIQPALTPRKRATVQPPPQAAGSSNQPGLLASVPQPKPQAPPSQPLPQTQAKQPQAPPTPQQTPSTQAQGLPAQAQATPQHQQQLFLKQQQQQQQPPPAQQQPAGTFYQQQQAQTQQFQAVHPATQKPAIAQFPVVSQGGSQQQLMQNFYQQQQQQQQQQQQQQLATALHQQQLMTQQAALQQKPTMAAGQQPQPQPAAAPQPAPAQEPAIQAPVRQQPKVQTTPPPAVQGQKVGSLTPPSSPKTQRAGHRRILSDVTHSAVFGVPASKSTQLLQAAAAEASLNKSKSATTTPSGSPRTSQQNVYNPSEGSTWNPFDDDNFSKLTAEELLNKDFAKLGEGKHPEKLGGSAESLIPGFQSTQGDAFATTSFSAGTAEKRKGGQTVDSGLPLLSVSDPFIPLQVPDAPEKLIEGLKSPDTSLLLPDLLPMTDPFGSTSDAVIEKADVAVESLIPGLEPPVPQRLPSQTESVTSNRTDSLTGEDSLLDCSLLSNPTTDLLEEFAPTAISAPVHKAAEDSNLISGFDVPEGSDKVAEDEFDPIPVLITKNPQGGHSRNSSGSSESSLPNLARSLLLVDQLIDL
Conditions: not given
The method, then: The assays were performed in U-bottom 384-well plates. […] The reactions were initiated by the combination of bacterially expressed, GST-Xa-hAAK1 with substrates and test compounds. The reactions were incubated at room temperature for 3 hours and terminated by adding 60 μl of 35 mM EDTA buffer to each sample. The reactions were analyzed on the Caliper LabChip 3000 (Caliper, Hopkinton, Mass.) by electrophoretic separation of the fluorescent substrate and phosphorylated product. […] Compounds were dissolved at 10 mM in dimethylsulfoxide (DMSO) and evaluated at eleven concentrations. IC50 values were derived by non-linear regression analysis.
What is called IC50 is the concentration at which inhibition is half-maximal. For `CC(C)(C)OCc1nc2ccc(-c3ccncc3)cc2[nH]1` [Example 55, 2-(tert-butoxymethyl)-6-(pyridin-4-yl)-1H-benzo[d]imidazole], the IC50 is 1790 nM.
The same measure, in the same setting: to `COc1cc2nc([C@H](N)CC(C)C)[nH]c2cc1-c1cnco1` [Example 29, (R)-1-(5-methoxy-6-(oxazol-5-yl)-1H-benzo[d]imidazol-2-yl)-3-methylbutan-1-amine] belongs 12 nM.
As to `CN[C@H](CC(C)C)c1nc2cc(-c3ccncc3)ccc2[nH]1` [Example 62, N,3-dimethyl-1-(5-(pyridin-4-yl)-1H-benzo[d]imidazol-2-yl) butan-1-amine], the IC50 came to 12 nM.
Consider `COc1cc2[nH]c([C@H](N)C3CCCC3)nc2cc1-c1cnco1` [Example 68, (R)-cyclopentyl (6-methoxy-5-(oxazol-5-yl)-1H-benzo[d]imidazol-2-yl) methanamine], for which the IC50 amounted to 50 nM.
As to `CNC(CC(C)C)c1nc2cc(-c3ccncc3)c(OC)cc2[nH]1` (stereo not drawn) [Example 73, 1-(6-methoxy-5-(pyridin-4-yl)-1H-benzo[d]imidazol-2-yl)-N,3-dimethylbutan-1-amine], the IC50 came to 180 nM.
Same read-out and setting: as for `Cc1noc(C)c1-c1ccc2[nH]c([C@H](N)CC(C)C)nc2c1` [Example 78, (R)-1-(5-(3,5-dimethylisoxazol-4-yl)-1H-benzo[d]imidazol-2-yl)-3-methylbutan-1-amine], the figure is 510 nM; as for `CC(C)CCc1nc2ccc(-c3cnco3)cc2o1` [Example 100, 2-isopentyl-6-(oxazol-5-yl)benzo[d]oxazole], 1020 nM.
Still for that read-out and setting: to `c1cc(-c2ccc3[nH]c(CC4CCCCC4)nc3c2)ccn1` [Example 72, 2-(cyclohexylmethyl)-5-(pyridin-4-yl)-1H-benzo[d]imidazole] belongs 108 nM; to `CN[C@H](CC(C)C)c1nc2cc(-c3ccnc(NC(C)=O)c3)ccc2[nH]1` [Example 63, (R)-N-(4-(2-(3-methyl-1-(methylamino)butyl)-1H-benzo[d]imidazol-5-yl)pyridin-2-yl)acetamide], 14 nM; to `CN[C@H](CC(C)C)c1nc2cc(-c3ccnc(N(C)C)c3)ccc2[nH]1` [Example 75, (R)-N,N-dimethyl-4-(2-(3-methyl-1-(methylamino)butyl)-1H-benzo[d]imidazol-5-yl) pyridin-2-amine], 244 nM.
Turning to `COc1cc2[nH]c(CC3CCCC3)nc2cc1-c1cnco1` [Example 69, 5-(2-(cyclopentylmethyl)-6-methoxy-1H-benzo[d]imidazol-5-yl) oxazole], the IC50 was determined as 57 nM.

The test is the same for the next values; noted with them: ATP 22 μM; GST-Xa-hAAK1 3.5 nM; room temperature for 3 hours; Caliper LabChip 3000; read-out: AAK1 IC50.
On to `CC(C)(F)CC(N)c1nc2cc(-c3ccncc3)ccc2[nH]1` (stereo not drawn) [Example 76, 3-fluoro-3-methyl-1-(5-(pyridin-4-yl)-1H-benzo[d]imidazol-2-yl)butan-1-amine], for which the IC50 was 350 nM.
`CC(C)C[C@@H](N)c1nc2cc(-c3ccnc(N)n3)ccc2[nH]1` [Example 16, (R)-4-(2-(1-amino-3-methylbutyl)-1H-benzo[d]imidazol-5-yl)pyrimidin-2-amine]: the IC50 came out at 202 nM.
Consider `CNc1cc(-c2ccc3[nH]c([C@@H](CC(C)C)NC)nc3c2)ccn1` [Example 61, (R)-N-methyl-4-(2-(3-methyl-1-(methylamino)butyl)-1H-benzo[d]imidazol-5-yl) pyridin-2-amine], for which the half-maximal inhibitory concentration (IC50) was 8 nM.
Take `CC(C)C[C@@H](N)c1nc2cc(-c3ccncc3)c(F)cc2[nH]1` [Example 30, (R)-1-(6-fluoro-5-(pyridin-4-yl)-1H-benzo[d]imidazol-2-yl)-3-methylbutan-1-amine]: the IC50 was determined as 88 nM.
For `CC(C)C[C@@H](N)c1nc2cc(-c3ccncc3)ccc2s1` [Example 96, (R)-3-methyl-1-(5-(pyridin-4-yl)benzo[d]thiazol-2-yl)butan-1-amine], the IC50 stood at 797 nM.
As for `CC(C)C[C@@H](N)c1nc2cc(-c3ccnc(C#N)c3)ccc2[nH]1` [Example 15, (R)-4-(2-(1-amino-3-methylbutyl)-1H-benzo[d]imidazol-5-yl)picolinonitrile], the IC50 is 289 nM.
For `c1cc(-c2ccc3oc(CCC4CCCC4)nc3c2)ccn1` [Example 92, 2-(2-cyclopentylethyl)-5-(pyridin-4-yl)benzo[d]oxazole], the IC50 amounted to 1700 nM.
On to `CCn1c([C@H](N)CC(C)C)nc2ccc(-c3cnco3)cc21` [Example 32, (R)-1-(1-ethyl-6-(oxazol-5-yl)-1H-benzo[d]imidazol-2-yl)-3-methylbutan-1-amine], for which the IC50 amounted to 450 nM.
Still for that read-out and setting: to `CC(C)C[C@@H](N)c1nc2ccc(-c3ccncc3)cc2n1C(C)C` [Example 44, (R)-1-(1-isopropyl-6-(pyridin-4-yl)-1H-benzo[d]imidazol-2-yl)-3-methylbutan-1-amine] belongs 124 nM; to `CC(C)CC(C)c1nc2cc(-c3ccncc3)ccc2o1` (stereo not drawn) [Example 88, 2-(4-methylpentan-2-yl)-5-(pyridin-4-yl)benzo[d]oxazole], 62 nM; to `COc1cc(-c2ccncc2)cc2[nH]c(CCC(C)C)nc12` [Example 25, 2-isopentyl-4-methoxy-6-(pyridin-4-yl)-1H-benzo[d]imidazole], 380 nM.
On to `c1cc(-c2ccc3[nH]c(CC4CCCC4)nc3c2)ccn1` [Example 99, 2-(cyclopentylmethyl)-5-(pyridin-4-yl)-1H-benzo[d]imidazole], for which the IC50 came out at 105 nM.
Take `CC(C)CC(N)c1nc2cc(-c3ccncc3)ccc2o1` (stereo not drawn) [Example 83, 3-methyl-1-(5-(pyridin-4-yl)benzo[d]oxazol-2-yl)butan-1-amine]: the IC50 was 71 nM.
In the case of `COc1cnccc1-c1ccc2nc([C@H](N)CC(C)C)n(CC(F)(F)F)c2c1` [Example 35, (R)-1-(6-(3-methoxypyridin-4-yl)-1-(2,2,2-trifluoroethyl)-1H-benzo[d]imidazol-2-yl)-3-methylbutan-1-amine], the IC50 turned out to be 25 nM.
With `CNC(CC(C)C)c1nc2cc(-c3cnco3)c(OC)cc2[nH]1` (stereo not drawn) [Example 107, 1-(6-methoxy-5-(oxazol-5-yl)-1H-benzo[d]imidazol-2-yl)-N,3-dimethylbutan-1-amine], the IC50 was 16 nM.
On the same count and under the same terms, to `COc1cc2[nH]c([C@H](N)C3CCCCC3)nc2cc1-c1cnco1` [Example 64, (R)-cyclohexyl(6-methoxy-5-(oxazol-5-yl)-1H-benzo[d]imidazol-2-yl)methanamine] belongs 16 nM; to `COc1cc(-c2cc(OC)c3[nH]c([C@H](N)CC(C)C)nc3c2)ccn1` [Example 24, (R)-1-(7-methoxy-5-(2-methoxypyridin-4-yl)-1H-benzo[d]imidazol-2-yl)-3-methylbutan-1-amine], 1590 nM; to `CC(C)CC(C)c1nc2cc(-c3ccncc3)ccc2[nH]1` (stereo not drawn) [Example 58, 2-(4-methylpentan-2-yl)-5-(pyridin-4-yl)-1H-benzo[d]imidazole], 40 nM.
Still for that read-out and setting: as for `c1cc(-c2ccc3oc(CC4CCCC4)nc3c2)ccn1` [Example 90, 2-(cyclopentylmethyl)-5-(pyridin-4-yl)benzo[d]oxazole], the figure is 818 nM; as for `CC(C)CCc1nc2ccc(-c3ccncc3)cc2o1` [Example 85, 2-isopentyl-6-(pyridin-4-yl)benzo[d]oxazole], 833 nM; as for `CC(C)C[C@@H](N)c1nc2ccc(-c3ccncc3)cc2n1CCO` [Example 40, (R)-2-(2-(1-amino-3-methylbutyl)-6-(pyridin-4-yl)-1H-benzo[d]imidazol-1-yl)ethanol], 271 nM.
For the molecule `CC(C)C[C@@H](N)c1nc2cc(-c3ccnc(N(C)C)n3)ccc2[nH]1` [Example 14, (R)-4-(2-(1-amino-3-methylbutyl)-1H-benzo[d]imidazol-5-yl)-N,N-dimethylpyrimidin-2-amine], the IC50 came out at 198 nM.
For `CC(C)CCc1nc2cc(-c3ccncc3)ccc2o1` [Example 89, 2-isopentyl-5-(pyridin-4-yl)benzo[d]oxazole], the IC50 is 327 nM.
`CC1CC1c1nc2ccc(-c3ccncc3)cc2[nH]1` (stereo not drawn) [Example 48, 2-(2-methylcyclopropyl)-6-(pyridin-4-yl)-1H-benzo[d]imidazole]: the IC50 was determined as 897 nM.
On to `COCCN[C@H](CC(C)C)c1nc2cc(-c3cnco3)ccc2[nH]1` [Example 102, (R)-N-(2-methoxyethyl)-3-methyl-1-(5-(oxazol-5-yl)-1H-benzo[d]imidazol-2-yl)butan-1-amine], for which the IC50 turned out to be 680 nM.
For the molecule `COc1cc(-c2cnco2)cc2[nH]c(CCC(C)C)nc12` [Example 26, 5-(2-isopentyl-4-methoxy-1H-benzo[d]imidazol-6-yl)oxazole], the IC50 is 217 nM.
`CC(C)C[C@@H](N)c1nc2ccc(-c3cnco3)cc2n1CCO` [Example 41, (R)-2-(2-(1-amino-3-methylbutyl)-6-(oxazol-5-yl)-1H-benzo[d]imidazol-1-yl)ethanol]: the IC50 worked out at 559 nM.
Regarding “(R)-1-(5-(1H-pyrazolo[3, 4-b]pyridin-4-yl)-1H-benzo[d]imidazol-2-yl)-3-methylbutan-1-amine [Example 7]”, the IC50 was 10 nM.

Still in this test, the particulars now being: read-out: AAK1 IC50.
Take `COc1cc(-c2ccc3[nH]c([C@H](N)CC(C)C)nc3c2)ccn1` [Example 13, (R)-1-(5-(2-methoxypyridin-4-yl)-1H-benzo[d]imidazol-2-yl)-3-methylbutan-1-amine]: the IC50 worked out at 171 nM.
With `COc1cnccc1-c1cc2nc([C@H](N)CC(C)C)[nH]c2cc1OC` [Example 27, (R)-1-(6-methoxy-5-(3-methoxypyridin-4-yl)-1H-benzo[d]imidazol-2-yl)-3-methylbutan-1-amine], the IC50 was determined as 2000 nM.
Turning to `CC(C)C[C@@H](NCC(F)(F)F)c1nc2cc(-c3ccncc3)ccc2[nH]1` [Example 66, 3-methyl-1-(5-(pyridin-4-yl)-1H-benzo[d]imidazol-2-yl)-N-(2,2,2-trifluoroethyl)butan-1-amine], the IC50 was 45 nM.
